These results are taken from ChEMBL document CHEMBL1157058, “3D-QSAR studies on quinazoline antifolate thymidylate synthase inhibitors by CoMFA and CoMSIA models” (Eur J Med Chem, 2010).

The structures appear in SMILES notation.

Thymidylate synthase, sequence (P04818 whole entry): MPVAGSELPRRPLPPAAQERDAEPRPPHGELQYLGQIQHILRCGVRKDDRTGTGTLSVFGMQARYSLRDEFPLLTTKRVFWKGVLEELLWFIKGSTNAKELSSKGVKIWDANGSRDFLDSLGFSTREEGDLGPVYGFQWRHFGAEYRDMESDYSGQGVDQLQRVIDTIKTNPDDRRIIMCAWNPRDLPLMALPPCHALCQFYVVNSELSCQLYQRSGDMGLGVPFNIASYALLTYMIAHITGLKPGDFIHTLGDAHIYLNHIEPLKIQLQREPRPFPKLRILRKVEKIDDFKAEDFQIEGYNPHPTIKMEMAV

This assay concerns the target Thymidylate synthase (Homo sapiens, UniProt P04818). Description: Inhibition of thymidylate synthase.
For orientation: IC50 means the concentration that gives 50% inhibition. Low values mean inhibition by little substance, high ones a need for much substance. As to `C=CCN(Cc1ccc2nc(C)[nH]c(=O)c2c1)c1ccc(C(=O)N[C@@H](CCC(=O)O)C(=O)O)nc1`, half-maximal inhibition (IC50) was put at 759 nM.
As to `Cc1nc2ccc(CN(C)c3ccc(C(=O)N[C@@H](CCC(=O)O)C(=O)O)c(F)c3)cc2c(=O)[nH]1`, 120 nM corresponded to half-maximal inhibition (IC50).
`Cc1nc2ccc(CN(CCF)c3cnc(C(=O)N[C@@H](CCC(=O)O)C(=O)O)s3)cc2c(=O)[nH]1`: half-maximal inhibition (IC50) was put at 191 nM.
Then `C=CCN(Cc1ccc2nc(C)[nH]c(=O)c2c1)c1ccc(C(=O)N[C@@H](CCC(=O)O)C(=O)O)cc1F`, with 5130 nM; and `CCN(Cc1ccc2nc(C)[nH]c(=O)c2c1)c1ncc(C(=O)N[C@@H](CCC(=O)O)C(=O)O)s1`, with 759 nM; and `Cc1nc2ccc(CN(CCBr)c3ccc(C(=O)N[C@@H](CCC(=O)O)C(=O)O)cc3)cc2c(=O)[nH]1`, with 1290 nM.
`C#CCN(Cc1ccc2nc(C)[nH]c(=O)c2c1)c1ccc(C(=O)N[C@@H](CCC(=O)O)C(=O)O)c(C(F)(F)F)c1`: 479 nM corresponded to half-maximal inhibition (IC50).
The compound `Cc1nc2ccc(CN(C)c3ccc(C(=O)N[C@@H](CCC(=O)O)C(=O)O)cc3)cc2c(=O)[nH]1` gave an IC50 of 302 nM.
`Cc1nc2ccc(CN(CCO)c3ccc(C(=O)N[C@@H](CCC(=O)O)C(=O)O)s3)cc2c(=O)[nH]1` showed an IC50 of 1200 nM.
In turn, `Cc1nc2ccc(CN(CCF)c3ccc(C(=O)N[C@@H](CCC(=O)O)C(=O)O)c(F)c3)cc2c(=O)[nH]1` gave an IC50 of 42.7 nM.
With `Cc1nc2ccc(CN(CCCO)c3ccc(C(=O)N[C@@H](CCC(=O)O)C(=O)O)c(F)c3)cc2c(=O)[nH]1` the figure was 589 nM; with `Cc1nc2ccc(CN(C)c3cnc(C(=O)N[C@@H](CCC(=O)O)C(=O)O)s3)cc2c(=O)[nH]1`, 417 nM.
`Cc1nc2ccc(CN(CCO)c3ccc(C(=O)N[C@@H](CCC(=O)O)C(=O)O)c(F)c3)cc2c(=O)[nH]1` showed an IC50 of 77.6 nM.
With `Cc1nc2ccc(CN(CCCO)c3cnc(C(=O)N[C@@H](CCC(=O)O)C(=O)O)s3)cc2c(=O)[nH]1` the figure was 1740 nM; with `Cc1nc2ccc(CN(CCCO)c3ccc(C(=O)N[C@@H](CCC(=O)O)C(=O)O)s3)cc2c(=O)[nH]1`, 3390 nM; with `Cc1nc2ccc(CN(CCCO)c3ccc(C(=O)N[C@@H](CCC(=O)O)C(=O)O)cc3)cc2c(=O)[nH]1`, 537 nM.
With `C#CCN(Cc1ccc2nc(C)[nH]c(=O)c2c1)c1ccc(C(=O)N[C@@H](CCC(=O)O)C(=O)O)c(F)c1` the figure was 20 nM; with `CCN(Cc1ccc2nc(C)[nH]c(=O)c2c1)c1ccc(C(=O)N[C@@H](CCC(=O)O)C(=O)O)cc1F`, 676 nM.
The compound `C#CCN(Cc1ccc2nc[nH]c(=O)c2c1)c1ccc(C(=O)N[C@@H](CCC(=O)O)C(=O)O)c(F)c1` gave an IC50 of 57.5 nM.
Regarding `Cc1nc2ccc(CNc3ccc(C(=O)N[C@@H](CCC(=O)O)C(=O)O)c(F)c3)cc2c(=O)[nH]1`, the IC50 was 3800 nM.
With `CCCN(Cc1ccc2nc(C)[nH]c(=O)c2c1)c1ccc(C(=O)N[C@@H](CCC(=O)O)C(=O)O)s1` the figure was 1860 nM.
With `Cc1nc2ccc(CN(C)c3ccc(C(=O)N[C@@H](CCC(=O)O)C(=O)O)c(N)c3)cc2c(=O)[nH]1`, half-maximal inhibition (IC50) was put at 851 nM.
With `CCN(Cc1ccc2nc(C)[nH]c(=O)c2c1)c1ccc(C(=O)N[C@@H](CCC(=O)O)C(=O)O)c(C)c1` the figure was 316 nM; with `C=CCN(Cc1ccc2nc(C)[nH]c(=O)c2c1)c1ccc(C(=O)N[C@@H](CCC(=O)O)C(=O)O)cc1`, 479 nM; with `CCN(Cc1ccc2nc(C)[nH]c(=O)c2c1)c1ccc(C(=O)N[C@@H](CCC(=O)O)C(=O)O)c(N)c1`, 309 nM.
Then `Cc1nc2ccc(CN(C)c3ccc(C(=O)N[C@@H](CCC(=O)O)C(=O)O)nc3)cc2c(=O)[nH]1`, with 347 nM; and `C=CCN(Cc1ccc2nc(C)[nH]c(=O)c2c1)c1ccc(C(=O)N[C@@H](CCC(=O)O)C(=O)O)c(F)c1`, with 75.9 nM; and `Cc1nc2ccc(CN(CC#N)c3ccc(C(=O)N[C@@H](CCC(=O)O)C(=O)O)s3)cc2c(=O)[nH]1`, with 3090 nM.
Compound `Cc1nc2ccc(CN(C)c3ccc(C(=O)N[C@@H](CCC(=O)O)C(=O)O)cn3)cc2c(=O)[nH]1` gave an IC50 of 4270 nM.
With `Cc1nc2ccc(CNc3ccc(C(=O)N[C@@H](CCC(=O)O)C(=O)O)cc3F)cc2c(=O)[nH]1` the figure was 9330 nM; with `CCN(Cc1ccc2nc(C)[nH]c(=O)c2c1)c1ccc(C(=O)N[C@@H](CCC(=O)O)C(=O)O)c(Cl)c1`, 120 nM; with `Cc1nc2ccc(CN(CCO)c3ccc(C(=O)N[C@@H](CCC(=O)O)C(=O)O)cc3F)cc2c(=O)[nH]1`, 3550 nM.
In the case of `C#CCN(Cc1ccc2nc(C)[nH]c(=O)c2c1)c1cnc(C(=O)N[C@@H](CCC(=O)O)C(=O)O)s1`, the IC50 was 229 nM.
The compound `CCN(Cc1ccc2nc(C)[nH]c(=O)c2c1)c1ccc(C(=O)N[C@@H](CCC(=O)O)C(=O)O)nc1` had an IC50 of 151 nM.
Then `C#CCN(Cc1ccc2nc(C)[nH]c(=O)c2c1)c1ccc(C(=O)N[C@@H](CCC(=O)O)C(=O)O)c([N+](=O)[O-])c1`, with 129 nM; and `Cc1nc2ccc(CN(CC#N)c3ccc(C(=O)N[C@@H](CCC(=O)O)C(=O)O)c(F)c3)cc2c(=O)[nH]1`, with 170 nM; and `COCCN(Cc1ccc2nc(C)[nH]c(=O)c2c1)c1ccc(C(=O)N[C@@H](CCC(=O)O)C(=O)O)cc1`, with 16200 nM.
Then `Cc1nc2ccc(CN(CCN)c3ccc(C(=O)N[C@@H](CCC(=O)O)C(=O)O)c(F)c3)cc2c(=O)[nH]1`, with 11700 nM.
`Cc1nc2ccc(CN(C)c3cnc(C(=O)N[C@@H](CCC(=O)O)C(=O)O)nc3)cc2c(=O)[nH]1` had an IC50 of 2340 nM.
As for `CCN(Cc1ccc2nc(C)[nH]c(=O)c2c1)c1cnc(C(=O)N[C@@H](CCC(=O)O)C(=O)O)s1`, the IC50 is 229 nM.
`CCc1nc2ccc(CNc3ccc(C(=O)N[C@@H](CCC(=O)O)C(=O)O)cc3)cc2c(=O)[nH]1`: the IC50 was 20000 nM.
For the compound `CN(Cc1ccc2nc(CF)[nH]c(=O)c2c1)c1ccc(C(=O)N[C@@H](CCC(=O)O)C(=O)O)cc1`, the IC50 is 2880 nM.
In turn, `COCCCN(Cc1ccc2nc(C)[nH]c(=O)c2c1)c1ccc(C(=O)N[C@@H](CCC(=O)O)C(=O)O)cc1` gave an IC50 of 12900 nM.
Then `C#CCN(Cc1ccc2nc(C)[nH]c(=O)c2c1)c1ccc(C(=O)N[C@@H](CCC(=O)O)C(=O)O)c(O)c1`, with 89.1 nM; and `CCN(Cc1ccc2nc(C)[nH]c(=O)c2c1)c1nnc(C(=O)N[C@@H](CCC(=O)O)C(=O)O)s1`, with 933 nM.
Turning to `Cc1nc2ccc(CN(CCF)c3ccc(C(=O)N[C@@H](CCC(=O)O)C(=O)O)cc3)cc2c(=O)[nH]1`, the midpoint of inhibition, the IC50, lay at 240 nM.
Then `C#CCN(Cc1ccc2nc(C)[nH]c(=O)c2c1)c1ccc(C(=O)N[C@@H](CCC(=O)O)C(=O)O)cc1F`, with 1450 nM; and `C#CCN(Cc1ccc2nc(C)[nH]c(=O)c2c1)c1ccc(C(=O)N[C@@H](CCC(=O)O)C(=O)O)c(C)c1`, with 501 nM.
With `C#CCN(Cc1ccc2nc(C)[nH]c(=O)c2c1)c1ccc(C(=O)N[C@@H](CCC(=O)O)C(=O)O)nc1` the figure was 39.8 nM.
With `CCN(Cc1ccc2nc(C)[nH]c(=O)c2c1)c1ccc(C(=O)N[C@@H](CCC(=O)O)C(=O)O)c(F)c1` the figure was 44.7 nM.
On to `Cc1nc2ccc(CN(CCF)c3ccc(C(=O)N[C@@H](CCC(=O)O)C(=O)O)s3)cc2c(=O)[nH]1`, for which half-maximal inhibition (IC50) was put at 550 nM.
With `Cc1nc2ccc(CN(CCO)c3cnc(C(=O)N[C@@H](CCC(=O)O)C(=O)O)s3)cc2c(=O)[nH]1` the figure was 417 nM; with `Cc1nc2ccc(CN(CCF)c3ccc(C(=O)N[C@@H](CCC(=O)O)C(=O)O)nc3)cc2c(=O)[nH]1`, 158 nM; with `Cc1nc2ccc(CNc3ccc(C(=O)N[C@@H](CCC(=O)O)C(=O)O)s3)cc2c(=O)[nH]1`, 24500 nM.
Consider `C#CCN(Cc1ccc2nc(C)[nH]c(=O)c2c1)c1ccc(C(=O)N[C@@H](CCC(=O)O)C(=O)O)c(N)c1`, for which half-maximal inhibition (IC50) was put at 288 nM.
With `CCN(Cc1ccc2nc(C)[nH]c(=O)c2c1)c1ccc(C(=O)N[C@@H](CCC(=O)O)C(=O)O)c(OC)c1` the figure was 191 nM; with `C#CCN(Cc1ccc2nc(C)[nH]c(=O)c2c1)c1ccc(C(=O)N[C@@H](CCC(=O)O)C(=O)O)c(OC)c1`, 67.6 nM; with `CCN(Cc1ccc2nc(C)[nH]c(=O)c2c1)c1ccc(C(=O)N[C@@H](CCC(=O)O)C(=O)O)s1`, 575 nM.
Then `Cc1nc2ccc(CN(CCCO)c3ccc(C(=O)N[C@@H](CCC(=O)O)C(=O)O)cc3F)cc2c(=O)[nH]1`, with 977 nM.
Regarding `Cc1nc2ccc(CNc3ccc(C(=O)N[C@@H](CCC(=O)O)C(=O)O)cc3)cc2c(=O)[nH]1`, half-maximal inhibition (IC50) required 4470 nM.
Then `CCN(Cc1ccc2nc(C)[nH]c(=O)c2c1)c1ccc(C(=O)N[C@@H](CCC(=O)O)C(=O)O)cc1`, with 170 nM.
For `Cc1nc2ccc(CN(C)c3ccc(C(=O)N[C@@H](CCC(=O)O)C(=O)O)cc3F)cc2c(=O)[nH]1`, 1150 nM corresponded to half-maximal inhibition (IC50).
With `Cc1nc2ccc(CN(C)c3ccc(C(=O)N[C@@H](CCC(=O)O)C(=O)O)c(C)c3)cc2c(=O)[nH]1` the figure was 933 nM; with `CCN(Cc1ccc2nc(C)[nH]c(=O)c2c1)c1ccc(C(=O)N[C@@H](CCC(=O)O)C(=O)O)c([N+](=O)[O-])c1`, 145 nM.
With `Cc1nc2ccc(CN(CC(N)=O)c3ccc(C(=O)N[C@@H](CCC(=O)O)C(=O)O)c(F)c3)cc2c(=O)[nH]1` the figure was 1350 nM; with `Cc1nc2ccc(CNc3cnc(C(=O)N[C@@H](CCC(=O)O)C(=O)O)s3)cc2c(=O)[nH]1`, 7080 nM.
With `C#CCN(Cc1ccc2nc(C)[nH]c(=O)c2c1)c1ccc(C(=O)N[C@@H](CCC(=O)O)C(=O)O)s1` the figure was 437 nM.
`C#CCN(Cc1ccc2nc(OC)[nH]c(=O)c2c1)c1ccc(C(=O)N[C@@H](CCC(=O)O)C(=O)O)c(F)c1`: the IC50 is 36.3 nM.
Then `Cc1nc2ccc(CN(CCF)c3ccc(C(=O)N[C@@H](CCC(=O)O)C(=O)O)cc3F)cc2c(=O)[nH]1`, with 1740 nM.
Then `CC(=O)CN(Cc1ccc2nc(C)[nH]c(=O)c2c1)c1ccc(C(=O)N[C@@H](CCC(=O)O)C(=O)O)cc1`, with 25100 nM; and `Cc1nc2ccc(CN(CCS)c3ccc(C(=O)N[C@@H](CCC(=O)O)C(=O)O)cc3)cc2c(=O)[nH]1`, with 1780 nM; and `C=CCN(Cc1ccc2nc(C)[nH]c(=O)c2c1)c1cnc(C(=O)N[C@@H](CCC(=O)O)C(=O)O)s1`, with 1070 nM.
